What was measured:
[1] = NOVARTIS: Cytotoxicity against human hepatocellular carcinoma cell line (Huh7); assay type: toxicity, cell-based, Huh-7; conditions: Huh7 cells (hepatocellular carcinoma cell line)
[2] = tested on: Plasmodium falciparum; assay: NOVARTIS: Inhibition of Plasmodium falciparum W2 (drug-resistant) proliferation in erythrocyte-based infection assay; assay type: functional, organism-based; conditions: Plasmodium falciparum, W2; read-out: EC50
[3] = tested on: Plasmodium falciparum; assay: NOVARTIS: Inhibition of Plasmodium falciparum 3D7 (drug-susceptible) proliferation in erythrocyte-based infection assay; assay type: functional, organism-based; conditions: Plasmodium falciparum, 3D7

| SMILES | CC50 [1] [nM] | EC50 [2] [nM] | EC50 [3] [nM] |
| --- | --- | --- | --- |
| CCC(C)N(CCC(=O)N1CCN(Cc2ccccc2)CC1)C(=O)Nc1cccc(Cl)c1Cl (stereo unspecified) | > 8390 | > 1060 | > 1560 |
| COc1cccc(C(=O)Oc2ccccc2-c2nc3cc(C)ccn3c2NC(C)(C)CC(C)(C)C)c1 | > 10000 | 6.15 | 986 |
| Cc1ccc(-c2cn3ccccc3[n+]2-c2ccccc2)cc1 | 51700 | 817 | 214 |
| CCC(C)(C)c1ccc(OCCOCC[n+]2ccccc2)c(C(C)(C)CC)c1 | 12200 | 844 | 960 |
| O=C(Nc1ccccc1Cl)NC1(C(=O)NCC2CCCO2)CCCCC1 (stereo unspecified) | > 10000 | > 1250 | > 984 |
| O=C(Cc1cccnc1)N1CCC(Oc2ccncc2)CC1 | 104 | 141 | 626 |
| CCOC(=O)C1(CC2CCCCO2)CCN(C(=O)Nc2cccc(SC)c2)CC1 (stereo unspecified) | > 100000 | 4530 | > 12500 |
| Cc1cccc2cc(CNC3CCOC(C)(C)C3)c(N3CCCC3)nc12 (stereo unspecified) | 39000 | 39.7 | 21.4 |
| CCOc1ccc(CN(C(=O)COc2ccc(Cl)cc2)C(C)CCCN(CC)CC)cc1 (stereo unspecified) | 18900 | 1320 | 387 |
| CN(C)CCCNC(=O)c1ccc(-c2cncc(-c3cccc(O)c3)n2)cc1 | > 10000 | > 1250 | 923 |
| CCOC(=O)C1=C(C)N=c2sc(=Cc3ccccc3OCc3ccccc3)c(=O)n2C1c1ccccc1OC(C)C (stereo unspecified) | > 100000 | > 12500 | 9730 |
| CCN(CC)CCCC(C)Nc1ccnc2ccc([N+](=O)[O-])cc12 (stereo unspecified) | > 10000 | 747 | 249 |
| COc1cc2c3cc1Oc1c(OC)c(OC)cc4c1C(Cc1ccc(O)c(c1)Oc1ccc(cc1)CC3N(C)CC2)N(C)CC4 (stereo unspecified) | > 10000 | 1060 | 997 |
| O=C(Nc1cc(Oc2ccc(F)cc2)cc([N+](=O)[O-])c1)c1nc2nc(-c3ccccc3)cc(C(F)(F)F)n2n1 | > 100000 | 3110 | > 12500 |
| O=C(CC(=O)N1CCOCC1)Nc1ccc2nc3n(c(=O)c2c1)CCCCC3 | > 100000 | 432 | > 10000 |
| c1ccc(Cc2cc[n+](Cc3ccccc3)cc2)cc1 | > 100000 | 72.5 | 144 |
| CC(C)C1=Nc2cc(C(N)=O)ccc2CN1C1CC1 | > 10000 | > 338 | 30.8 |
| CCCc1nc2ccc(NC(=O)c3ccccc3F)cc2c(=O)n1Cc1ccc(-c2ccccc2)cc1 | > 100000 | 217 | 1080 |
| CC(C)(C)CC(C)(C)Nc1c(-c2ccccc2OC(=O)c2cccc(Br)c2)nc2ccccn12 | > 100000 | 823 | 6620 |
| COc1ccc(Nc2nc(NN=Cc3cc4c(cc3Br)OCO4)nc(Nc3ccc([N+](=O)[O-])cc3)n2)cc1 | > 100000 | 684 | 460 |
| COC(=O)C1=C(C)NC2=C(C(=O)CC(c3ccc(OC)c(OC)c3)C2)C1c1cccc(Cl)c1Cl (stereo unspecified) | > 100000 | 93.7 | 207 |
| C[n+]1c(-c2ccccc2)cc(-c2ccccc2)cc1-c1ccccc1 | > 10000 | > 590 | > 1020 |
| COC(=O)c1c(NC(=O)c2ccc(S(=O)(=O)N3CCOCC3)cc2)sc2c1CCN(C(C)=O)C2 | > 100000 | 878 | 8660 |

| SMILES | CC50 [1] [nM] | EC50 [2] [nM] | EC50 [3] [nM] |
| --- | --- | --- | --- |
| O=C(NN=Cc1cc2ccccc2cc1O)c1cccnc1 | > 10000 | 946 | 871 |
| CN(C)c1ccc(/C=C/C(=O)NC(=O)c2ccccc2OC(=O)c2ccccc2)cc1 | > 10000 | 265 | 238 |
| CCOC(=O)C1=C(C)NC2=C(C(=O)CC(C)(C)C2)C1c1cc(I)sc1SC (stereo unspecified) | > 100000 | 287 | 798 |
| O=C(c1ccc2ccccc2c1)N1CCc2ccccc21 | > 100000 | 4570 | 3500 |
| CCOC(=O)c1ccc(N(C(=O)Cc2c[nH]c3ccccc23)C(C(=O)NC2CCCCC2)c2cccnc2)cc1 (stereo unspecified) | > 100000 | 295 | 280 |
| c1ccc(CN2CCC(Nc3ncnc4cc(-c5ccccc5)sc34)CC2)cc1 | > 100000 | 4890 | 2060 |
| O=C(COC(=O)c1ccc2c(c1)C(=O)N(c1ccc3ccccc3c1)C2=O)c1ccc(Br)cc1 | > 10000 | > 1250 | > 919 |
| Cn1c(=O)n(C)c2cc(NC(=O)CCl)ccc21 | 12200 | 444 | 1460 |
| Cc1ccc(S(=O)(=O)Nc2ccc(C(=O)NCCC(C)C)cc2)cc1 | > 10000 | > 1250 | > 837 |
| CCn1ncc(CN2CCC(C(=O)Nc3ccccc3-c3cccc(OC)c3)CC2)c1C | 47600 | 1160 | > 12500 |
| COc1cccc2c1C(=O)c1c(O)c3c(c(O)c1C2=O)C[C@](O)(C(C)=O)C[C@@H]3O[C@H]1C[C@@H](N)[C@H](O)[C@H](C)O1 | 129 | 213 | 308 |
| FC(F)(F)c1cccc(Nc2nnnc3ccccc23)c1 | > 10000 | 433 | 756 |
| O=C(NCc1ccc2c(c1)OCO2)C1CNCC1c1ccc(C(F)(F)F)cc1 (stereo unspecified) | 54300 | 362 | 325 |
| COc1cc(NC(C)CCCN(Cc2ccccc2OC)C(=O)Nc2ccccc2OC)c2ncccc2c1 (stereo unspecified) | > 10000 | 614 | 847 |
| Cc1cc(N2CCN(C3CCCCC3)CC2)n2c(nc3ccccc32)c1C#N | > 100000 | 203 | 63.5 |
| CCOC(=O)c1c(-c2ccccc2)oc2c1C(=O)c1ccccc1C2=O | > 100000 | 1350 | 1130 |
| Cc1ccccc1C(=O)N(CC(=O)Nc1cc(C(C)(C)C)nn1-c1ccccc1Cl)C(C)C | > 8810 | 649 | 1090 |
| COc1cc2nc(N3CCN(c4nc(N)c5cc(OC)c(OC)cc5n4)CC3)nc(N)c2cc1OC | 14700 | 257 | 91.1 |
| CCCc1nc2ccc(NC(=O)NCC)cc2c(=O)n1Cc1ccc(-c2ccccc2)cc1 | > 100000 | 6320 | 9050 |
| N=C1NC(=O)/C(=C/C=C/c2ccc([N+](=O)[O-])o2)S1 | 17100 | 592 | 1080 |
| COc1cc(C=NNc2nc3ccccc3[nH]2)cc(OC)c1OC | 87500 | 339 | 176 |
| C=CCN1CCN(C(c2ccccc2F)c2nnnn2Cc2ccco2)CC1 (stereo unspecified) | > 77000 | 2910 | > 12500 |
| COc1ccc(C2C(C(=O)Nc3cnc4ccccc4c3)c3ccccc3C(=O)N2Cc2ccc(F)cc2)cc1 (stereo unspecified) | > 100000 | 941 | 2170 |

| SMILES | CC50 [1] [nM] | EC50 [2] [nM] | EC50 [3] [nM] |
| --- | --- | --- | --- |
| CCCN(CCC)S(=O)(=O)c1cc(Br)cc2c1N(C(=O)C1CC1)CC2 | > 100000 | 736 | 410 |
| CCCOC(=O)CSc1nc(N)c(C#N)c(-c2ccco2)c1C#N | > 100000 | 1220 | 1890 |
| COC(=O)CC(NC(=O)c1ccc(C)cc1)c1ccc2c(c1)OCO2 (stereo unspecified) | 15000 | 206 | > 1680 |
| COc1ccc(C2CC(=O)C3=C(C2)NC(C)=C(C(=O)OC2CCCC2)C3c2ccc(F)cc2)cc1OC (stereo unspecified) | 11600 | 19.3 | 12.6 |
| O=c1[nH]c(SCC(O)c2ccc(Cl)c(Cl)c2)nc2sc3ccccc3c12 (stereo unspecified) | > 10000 | 124 | 663 |
| COc1ccc(C(=O)Nc2nonc2-c2ccc(OC)c(OC)c2)cc1Cl | > 100000 | 2540 | 1780 |
| N=c1c2c(n(Cc3ccc(Cl)cc3)c3c1CCC3)CCC2 | > 100000 | 125 | 62.7 |
| OC1(c2ccc(Br)cc2)CCN(C2CCN(Cc3ccccc3)CC2)CC1 | 9260 | 433 | 183 |
| CC(=O)N1c2ccc(C)cc2C(C)(c2ccccc2)CC1(C)C (stereo unspecified) | 45400 | 674 | 776 |
| CCCCCCc1ccc(C(=O)N(C)CCCNc2ccnc3cc(Cl)ccc23)cc1 | > 10800 | 219 | 670 |
| Cc1ccc(NC(=O)CSc2nc3cc(C(=O)NCCCOC(C)C)ccc3c(=O)n2Cc2ccco2)cc1Cl | > 10000 | 340 | 1940 |
| CN1CCN=C1c1ccc(NC(=O)c2ccc(C(=O)Nc3ccc(C4=NCCN4C)cc3)c([N+](=O)[O-])c2)cc1 | > 10000 | 9.13 | 72.5 |
| CC(=O)N(C1=C(N2CCOCC2)C(=O)c2ccccc2C1=O)c1ccc(F)c(F)c1 | 3480 | 57.5 | 74.3 |
| Cc1ccc(C[n+]2cc(-c3ccc(C)cc3)n3c2CCC3)cc1 | 34500 | 240 | 538 |
| COc1ccc2[nH]cc(CCNC(=O)Oc3ccccc3)c2c1 | > 10000 | 604 | > 1290 |
| O=C1Cc2c([nH]c3ccc(OCc4ccccc4)cc23)C2CC=CCC12 (stereo unspecified) | > 10000 | > 1250 | 1590 |
| O=C(NCc1ccccc1)c1cnc(NCCCN2CCCC2)nc1NCCc1ccccc1 | > 10000 | > 1250 | 648 |
| CCN(CC)S(=O)(=O)c1ccc(C(=O)NCc2nnc(SCC(=O)N3CCc4ccccc43)n2-c2ccccc2OC)cc1 | > 10000 | 26.7 | > 1250 |
| Clc1ccc(C2Nc3ccc4ccccc4c3C3C=CCC32)c(Cl)c1 (stereo unspecified) | > 10000 | > 1200 | > 1250 |
| CCCN1CCC(NC2CCCc3c2[nH]c2ccc([N+](=O)[O-])cc32)CC1 (stereo unspecified) | 28000 | 3630 | 1160 |
| Cc1cc(C)c(CSc2ncnc3[nH]cnc23)c(C)c1 | > 10000 | > 278 | > 1520 |
